Measurements published in US10294202B2, “Pyrrolidinones as herbicides” (FMC Corporation, priority 2013, dated 2019).

Legend:
blackgrass = test: Test A postemergence herbicide test; type: in vivo, Alopecurus myosuroides; conditions: for Plant response rating, Blackgrass: 125 g ai/ha, 0 to 100 scale, 0 is no effect, 100 is complete control; for Blackgrass plant response rating (0 to 100 scale, 0 is no effect, 100 is complete control): 500 g ai/ha
In short: (§1)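 Potted in loam soil/sand blend; postemergence application at 1–2 leaf stage (2–10 cm). Greenhouse ~10 d. Visual injury vs untreated, 0–100 scale; 100 = complete control.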

sedge, umbrella = test: Test B flooded paddy test; type: in vivo, Cyperus difformis; conditions: 500 g ai/ha, Flood; scale of 0 to 100 where 0 is no effect and 100 is complete control
In short: (§2)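 Treatment was made at the 2-leaf stage by dosing the standing floodwater, kept 3 cm above soil level for the whole test. Greenhouse exposure lasted 13 to 15 days. Response is a visual percent rating relative to controls, where a dash indicates no test result.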

giant foxtail = test: Test A pre-/postemergence herbicide test; type: in vivo, Setaria faberii; conditions: for Plant response rating, Foxtail, Giant: 0 to 100 scale
In short: (§3)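 Seeds sown in loam soil/sand blend received a preemergence directed soil spray of test chemical in non-phytotoxic solvent with surfactant; postemergence plants (2–10 cm, one- to two-leaf stage) were sprayed with the same formulation. After about 10 days in greenhouse, injury was rated visually versus untreated controls, 0 (no effect) to 100 (complete control).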

corn = test: Test A pre-/postemergence herbicide test; type: in vivo, Zea mays; conditions: Postemergence; for Plant response rating, Corn: 125 g ai/ha, 0 to 100 scale, 0 is no effect, 100 is complete control; for Corn plant response rating (0 to 100 scale, 0 is no effect, 100 is complete control): 500 g ai/ha
In short: as §3

ragweed = test: Test A pre-/postemergence herbicide test; type: in vivo, Ambrosia elatior; conditions: for Plant response rating, Ragweed: 0 to 100 scale
In short: as §3

rice = test: Test B flooded paddy test; type: in vivo, Oryza sativa; conditions: 500 g ai/ha, Flood; scale of 0 to 100 where 0 is no effect and 100 is complete control
In short: as §2

barnyardgrass [1] = test: Test B flooded paddy test; type: in vivo, Echinochloa crus-galli; conditions: 500 g ai/ha, Flood; scale of 0 to 100 where 0 is no effect and 100 is complete control
In short: as §2

galium = test: Test A postemergence herbicide test; type: in vivo, Galium aparine; conditions: for Plant response rating, Galium: 125 g ai/ha, 0 to 100 scale, 0 is no effect, 100 is complete control; for Galium plant response rating (0 to 100 scale, 0 is no effect, 100 is complete control): 500 g ai/ha
In short: as §1

pigweed = test: Test A pre-/postemergence herbicide test; type: in vivo, Amaranthus retroflexus; conditions: for Plant response rating, Pigweed: 0 to 100 scale
In short: as §3

wheat = test: Test A pre-/postemergence herbicide test; type: in vivo, Triticum aestivum; conditions: Postemergence; for Plant response rating, Wheat: 125 g ai/ha, 0 to 100 scale, 0 is no effect, 100 is complete control; for Wheat plant response rating (0 to 100 scale, 0 is no effect, 100 is complete control): 500 g ai/ha
In short: as §3

kochia = test: Test A pre-/postemergence herbicide test; type: in vivo, Kochia scoparia; conditions: for Plant response rating, Kochia: 0 to 100 scale
In short: as §3

barnyardgrass [2] = test: Test A pre-/postemergence herbicide test; type: in vivo, Echinochloa crus-galli
In short: as §3

ducksalad = test: Test B flooded paddy test; type: in vivo, Heteranthera limosa; conditions: 500 g ai/ha, Flood; scale of 0 to 100 where 0 is no effect and 100 is complete control
In short: as §2

ryegrass, Italian = test: Test A pre-/postemergence herbicide test; type: in vivo, Lolium multiflorum; conditions: for Plant response rating, Ryegrass, Italian: 0 to 100 scale
In short: as §3

[3] = 125 g ai/ha, visual rating, 0 no effect, 100 complete control, approximately 10 days, preemergence
[4] = Postemergence, 125 g ai/ha, 0 is no effect, 100 is complete control
[5] = preemergence, 500 g ai/ha, 0 is no effect and 100 is complete control
[6] = 125 g ai/ha, visual rating, 0 to 100 scale, 0 no effect, 100 complete control, approximately 10 days, preemergence
[7] = Postemergence, 125 g ai/ha, 0 to 100 scale, 0 is no effect, 100 is complete control
[8] = preemergence, 500 g ai/ha, 0 to 100 scale (0 no effect, 100 complete control)

SMILES	Plant response rating, Blackgrass (blackgrass)	Blackgrass plant response rating (0 to 100 scale, 0 is no effect, 100 is complete control) (blackgrass)	Plant response rating, Sedge, Umbrella (sedge, umbrella)	Plant response rating, Foxtail, Giant (giant foxtail; [3])	Plant response rating, Foxtail, Giant (giant foxtail; [4])	Foxtail, Giant plant response rating (0 to 100 scale, 0 is no effect, 100 is complete control) (giant foxtail; Postemergence, 500 g ai/ha)	Plant response rating, Foxtail, Giant (giant foxtail; preemergence, 500 g ai/ha)	Plant response rating, Corn (corn)	Corn plant response rating (0 to 100 scale, 0 is no effect, 100 is complete control) (corn)	Plant response rating, Ragweed (ragweed; [3])	Plant response rating, Ragweed (ragweed; [4])	Ragweed plant response rating (0 to 100 scale, 0 is no effect, 100 is complete control) (ragweed; Postemergence, 500 g ai/ha)	Plant response rating, Ragweed (ragweed; [5])	Plant response rating, Rice (rice)	Plant response rating, Barnyardgrass (barnyardgrass [1])	Plant response rating, Galium (galium)	Galium plant response rating (0 to 100 scale, 0 is no effect, 100 is complete control) (galium)	Plant response rating, Pigweed (pigweed; [3])	Plant response rating, Pigweed (pigweed; [4])	Pigweed plant response rating (0 to 100 scale, 0 is no effect, 100 is complete control) (pigweed; Postemergence, 500 g ai/ha)	further results
O=C1NCC(c2cccc(C(F)F)c2)C1C(=O)Nc1ccccc1F (racemic) [Compound 163]	50	60	0	90	70	80	90	10	40	0	0	20	40	15	90	20	60	40	0	20	Plant response rating, Pigweed (pigweed; [5]): 40; Plant response rating, Wheat (wheat): 20; Wheat plant response rating (0 to 100 scale, 0 is no effect, 100 is complete control) (wheat): 60; Plant response rating, Kochia (kochia; [3]): 0; Plant response rating, Kochia (kochia; [4]): 0; Kochia plant response rating (0 to 100 scale, 0 is no effect, 100 is complete control) (kochia; Postemergence, 500 g ai/ha): 0; Plant response rating, Kochia (kochia; [5]): 50; Plant response rating, Barnyardgrass (barnyardgrass [2]; [6]): 80; Plant response rating, Barnyardgrass (barnyardgrass [2]; [7]): 90; Barnyardgrass plant response rating (0 to 100 scale, 0 is no effect, 100 is complete control) (barnyardgrass [2]; Postemergence, 500 g ai/ha): 90; Plant response rating, Barnyardgrass (barnyardgrass [2]; [8]): 90; Plant response rating, Ducksalad (ducksalad): 100; Plant response rating, Ryegrass, Italian (ryegrass, Italian; [3]): 0; Plant response rating, Ryegrass, Italian (ryegrass, Italian; [4]): 0; Ryegrass, Italian plant response rating (0 to 100 scale, 0 is no effect, 100 is complete control) (ryegrass, Italian; Postemergence, 500 g ai/ha): 30; Plant response rating, Ryegrass, Italian (ryegrass, Italian; [5]): 0
O=C1NCC(c2cccc(C(F)F)c2)C1C(=O)Nc1cccc(F)c1F (racemic) [Compound 164]	50	70	0	90	70	90	90	50	80	20	20	50	60	20	80	50	60	50	20	60	Plant response rating, Pigweed (pigweed; [5]): 70; Plant response rating, Wheat (wheat): 40; Wheat plant response rating (0 to 100 scale, 0 is no effect, 100 is complete control) (wheat): 80; Plant response rating, Kochia (kochia; [3]): 60; Plant response rating, Kochia (kochia; [4]): 60; Kochia plant response rating (0 to 100 scale, 0 is no effect, 100 is complete control) (kochia; Postemergence, 500 g ai/ha): 70; Plant response rating, Kochia (kochia; [5]): 80; Plant response rating, Barnyardgrass (barnyardgrass [2]; [6]): 90; Plant response rating, Barnyardgrass (barnyardgrass [2]; [7]): 90; Barnyardgrass plant response rating (0 to 100 scale, 0 is no effect, 100 is complete control) (barnyardgrass [2]; Postemergence, 500 g ai/ha): 90; Plant response rating, Barnyardgrass (barnyardgrass [2]; [8]): 90; Plant response rating, Ducksalad (ducksalad): 100; Plant response rating, Ryegrass, Italian (ryegrass, Italian; [3]): 20; Plant response rating, Ryegrass, Italian (ryegrass, Italian; [4]): 40; Ryegrass, Italian plant response rating (0 to 100 scale, 0 is no effect, 100 is complete control) (ryegrass, Italian; Postemergence, 500 g ai/ha): 50; Plant response rating, Ryegrass, Italian (ryegrass, Italian; [5]): 50
